Measured values published in US20090011424A1, “Cancer-suppressing agents” (Tokyo Medical and Dental University, priority 2005, published 2009).

System: SMS-KAN cell
Experiment: messenger RNA expression analysis, AceGene Human oligo chip 30 K, NR1I2-expressing clone B1 vs control clone
Assay type: cell-based
Conditions: 2nd: Cy5-B1/Cy3-control
Text: The NR1I2 gene has been known as a transcriptional factor. Thus, it is possible to know what type of gene expression is controlled by obtaining messenger RNAs from cells causing NR1I2 protein expression and cells not causing such expression, and comparing the expression levels thereof with each other. As described above, the NR1I2 gene protein may have an effect of inhibiting cancer. […] Therefore, pCMV-Tag3 vector not containing a foreign gene as a control was introduced into SMS-KAN cell, and pCMV-Tag3-VP-NR1I2 containing the NR1I2 gene as a test sample was introduced into SMS-KAN cell. As a result, a control cell clone and a cell clone B1 permanently causing NR1I2 protein expression were obtained. Thereafter, analysis of messenger RNA expression was carried out using these two types of cells and an AceGene Human oligo chip 30 K (DNA Chip Research Inc.), with which the expression levels of 30,000 human genes can be observed (Inoue. J., et al. Am J. Pathol. 165. 71. 2004). A complementary strand DNA (complimentary DNA) was prepared, into which aminoallyl-dUTP (Ambion Inc.) was incorporated using an Oligo (dT) 12-18 primer. Then, the aminoallyl group was labeled with reactive Cy3 (cyanin 3) and Cy5 (cyanin 5) (Amersham Biosciences) via a coupling reaction. Hybridization was performed twice (1st: Cy3-B1/Cy5-control; 2nd: Cy5-B1/Cy3-control). Signals were measured using a GenePix 4000B (Axon Instruments) so as to be analyzed by GenePix Pro 4.1 software (Axon Instruments). Tables 3 and 4 are lists of genes, where in the cases of SMS-KAN cells into which the NR1I2 gene had been introduced in the two experiments, the expression levels were 1.5-fold or greater than the expression level in the case of a control cell clone.

NR1I2 gene: human-derived gene, nuclear receptor subfamily 1, group I, member 2 (pregnane X receptor, PXR), nucleotide sequence SEQ ID NO: 1
ADAMTS2 expression level Ratio 2nd: 1.60 | ADNP expression level Ratio 2nd: 1.63 | AP3S2 expression level Ratio 2nd: 2.55 | APEG1 expression level Ratio 2nd: 1.91 | APOA1 expression level Ratio 2nd: 2.00 | APP expression level Ratio 2nd: 2.05 | ARHC expression level Ratio 2nd: 1.52 | ARL2 expression level Ratio 2nd: 1.53 | ASCL2 expression level Ratio 2nd: 2.46 | ASH1 expression level Ratio 2nd: 1.83 | B4GALT5 expression level Ratio 2nd: 1.56 | BARD1 expression level Ratio 2nd: 1.93 | BCAT2 expression level Ratio 2nd: 1.63 | BLP2 expression level Ratio 2nd: 1.53 | BMP15 expression level Ratio 2nd: 1.52 | C6orf25 expression level Ratio 2nd: 1.76 | CCNA1 expression level Ratio 2nd: 1.92 | CDC7L1 expression level Ratio 2nd: 1.86 | CISH expression level Ratio 2nd: 2.17 | CORO2A expression level Ratio 2nd: 1.73 | Cab45 expression level Ratio 2nd: 1.86 | DKFZp434G05 expression level Ratio 2nd: 1.58 | DKKL1 expression level Ratio 2nd: 1.56 | DNA12 expression level Ratio 2nd: 1.54 | EPHX1 expression level Ratio 2nd: 2.25 | ERCC1 expression level Ratio 2nd: 1.84 | ETR101 expression level Ratio 2nd: 1.67 | EXT1 expression level Ratio 2nd: 1.89 | FLJ10737 expression level Ratio 2nd: 1.54 | FLJ12389 expression level Ratio 2nd: 2.19 | FLJ13197 expression level Ratio 2nd: 2.99 | FLJ13479 expression level Ratio 2nd: 1.94 | FLJ20288 expression level Ratio 2nd: 1.83 | FLJ20555 expression level Ratio 2nd: 1.53 | FLJ23462 expression level Ratio 2nd: 1.67 | FOFR3 expression level Ratio 2nd: 1.59 | GLI2 expression level Ratio 2nd: 2.72 | GNE expression level Ratio 2nd: 1.90 | GSTT2 expression level Ratio 2nd: 3.28 | GUCY1A3 expression level Ratio 2nd: 1.63 | HHEX expression level Ratio 2nd: 1.57 | HNT expression level Ratio 2nd: 1.57 | HPCL2 expression level Ratio 2nd: 1.74 | ICAM5 expression level Ratio 2nd: 1.54 | IFIT4 expression level Ratio 2nd: 1.54 | INSL6 expression level Ratio 2nd: 1.68 | IRC039700 expression level Ratio 2nd: 2.15 | KCNJ15 expression level Ratio 2nd: 1.91 | KIAA0161 expression level Ratio 2nd: 1.56 | KIAA0212 expression level Ratio 2nd: 2.04 | LBP-9 expression level Ratio 2nd: 1.95 | LDB1 expression level Ratio 2nd: 1.60 | LICAM expression level Ratio 2nd: 1.89 | LILRB5 expression level Ratio 2nd: 1.76 | LOC51024 expression level Ratio 2nd: 1.69 | LRP8 expression level Ratio 2nd: 1.54 | LZLP expression level Ratio 2nd: 1.61 | MAFG expression level Ratio 2nd: 2.55 | MGC2306 expression level Ratio 2nd: 1.58 | MGC2941 expression level Ratio 2nd: 1.93 | MPP6 expression level Ratio 2nd: 1.70 | MT-ACT48 expression level Ratio 2nd: 1.61 | OCM expression level Ratio 2nd: 1.72 | OMP expression level Ratio 2nd: 1.58 | OPA3 expression level Ratio 2nd: 2.49 | ORC5L expression level Ratio 2nd: 1.69 | ORM1 expression level Ratio 2nd: 1.60 | PCDHA4 expression level Ratio 2nd: 1.97 | PCDHB10 expression level Ratio 2nd: 1.66 | PDCD8 expression level Ratio 2nd: 2.03 | PFKFB4 expression level Ratio 2nd: 4.97 | PGAM1 expression level Ratio 2nd: 2.16 | PITPN expression level Ratio 2nd: 1.75 | PLA2G2A expression level Ratio 2nd: 3.05 | PLCE1 expression level Ratio 2nd: 2.94 | PLEKHA1 expression level Ratio 2nd: 1.56 | PRO2121 expression level Ratio 2nd: 1.91 | PRO2831 expression level Ratio 2nd: 1.53 | RDH5 expression level Ratio 2nd: 1.64 | RP1 expression level Ratio 2nd: 1.56 | RPL39L expression level Ratio 2nd: 2.34 | RPS16 expression level Ratio 2nd: 1.59 | SC65 expression level Ratio 2nd: 1.58 | SCD expression level Ratio 2nd: 1.77 | SCN2B expression level Ratio 2nd: 1.54 | SLC22A11 expression level Ratio 2nd: 1.68 | SNAP91 expression level Ratio 2nd: 3.43 | STK11 expression level Ratio 2nd: 1.64 | SURF1 expression level Ratio 2nd: 1.95 | TCEA1 expression level Ratio 2nd: 1.56 | TGM2 expression level Ratio 2nd: 1.62 | TIMM10 expression level Ratio 2nd: 1.89 | TLAL1 expression level Ratio 2nd: 2.37 | TMPRSS4 expression level Ratio 2nd: 1.57 | TOP3B expression level Ratio 2nd: 1.61 | TPARL expression level Ratio 2nd: 1.58 | TRPV4 expression level Ratio 2nd: 1.80 | TSPAN-1 expression level Ratio 2nd: 1.69 | UXT expression level Ratio 2nd: 2.94 | WHSC2 expression level Ratio 2nd: 1.67
